Values quoted from earlier work in patent US7354941B2, “Nicotinamide benzofused-heterocyclyl derivatives useful as selective inhibitors of PDE4 isozymes” (Pfizer Products Inc., priority 2000, dated 2008).
Where two headings read alike, the source gives them in different places.

Tests used:
PDE4 = settings: cited from earlier work
TNFproduction = settings: read-out: IC50, TNF production; cited from earlier work
canine tracheal PDE4 = settings: at 100 nM; cited from earlier work
[1] = tested on: PDE4 derived from tumor cells; settings: cited from earlier work
tumor cells = settings: cited from earlier work
[2] = tested on: patients with bronchial asthma; settings: cited from earlier work
[3] = tested on: high-affinity rolipram binding site (Sr); settings: cited from earlier work
catalytic site (Sc) = settings: compared with SB-207,499; cited from earlier work
[4] = 54 subjects, doses up to 400 mg; cited from earlier work
[5] = rat; cited from earlier work
[6] = rat; cited from earlier work; remark: listed apart in the source
PDE4 in U937 cells = settings: cited from earlier work
[7] = tested on: antigen-induced eosinophilia; settings: rat; cited from earlier work
[8] = tested on: early phase bronchoconstriction; settings: in vivo; cited from earlier work
guinea-pig lung PDE4 = settings: cited from earlier work
[9] = tested on: antigen-induced bronchoconstriction; settings: guinea-pig; cited from earlier work
[10] = tested on: LPS-stimulated ex vivo TNF release and PHA induced lymphocyte proliferation; settings: oral dose of 300 mg; cited from earlier work
bronchitis = settings: in vivo; cited from earlier work
[11] = standard in vitro guinea-pig models of asthma; cited from earlier work
[12] = tested on: human peripheral blood mononuclear cells (HPBM); settings: normal patients and subjects with atopic dermatitis; cited from earlier work
[13] = tested on: lipopolysaccharide-induced bowel erythrocyte extravasation; settings: cited from earlier work; for lipopolysaccharide-induced bowel erythrocyte extravasation: pretreatment i.p. 3×, rats; for lipopolysaccharide induced erythrocyte extravasation in rats and intestinal hypoperfusion in dogs: rat, in vivo
[14] = tested on: lipopolysaccharide-induced mesenteric blood flow fall; settings: dog, in vivo; cited from earlier work
bone loss = settings: serial oral administrations; cited from earlier work
bone marrow culture = settings: cited from earlier work
[15] = tested on: collagen II induced arthritis; settings: cited from earlier work
PBMC = settings: cited from earlier work
[16] = tested on: croton oil-induced ear inflammation; settings: mouse; cited from earlier work
[17] = tested on: experimental allergic encephalomyelitis; settings: marmoset; cited from earlier work
[18] = tested on: chronic relapsing experimental allergic encephalomyelitis; settings: SJL mice; cited from earlier work
colitis = settings: rat; cited from earlier work
[19] = tested on: T-cell mediated hepatic failure; settings: cited from earlier work
[20] = tested on: isolated pulmonary artery rings; settings: rings from normal rats and rats with hypoxia-induced pulmonary hypertension; cited from earlier work

In the case of `COc1ccc(C(CC(N)=O)N2C(=O)c3ccccc3C2=O)cc1OC1CCCC1` (centres unmarked) [(0.0.32)], the IC50 (PDE4) is given as 0.042 nM and the IC50 (TNFproduction) is given as 130 nM.
In the case of `COc1ccc(C(=O)Cc2c(Cl)c[n+]([O-])cc2Cl)c2c1OCCCCO2` [(0.0.49)], the “inhibition of canine tracheal PDE4” value (canine tracheal PDE4) is given as “almost complete inhibition”.
For `Clc1nc2c(N3CCCC3)nc(N3CCNCC3)nc2nc1NCc1ccccc1` [(0.0.55)], the IC50 [1] is listed as 16 nM and the “growth of tumor cells” value (tumor cells) is listed as “inhibit the growth of tumor cells at micromolar concentrations”.
In the case of `COc1ccc([C@H](Cc2ccncc2)c2ccccc2)cc1OC1CCCC1` [CDP840], the “late reactions to inhaled allergen” value ([2]; 9.5 days oral, 15 and 30 mg) is given as “suppression of late reactions to inhaled allergen”, the “adverse events of nausea or headache” value ([2]; human, in vivo) is given as “without any adverse events of nausea or headache” and the “late-phase response in the treatment of asthma” value ([2]; human, in vivo) is given as “significant inhibition of late-phase response”. The “affinity at the Sr” value [3] was “comparatively low affinity at the Sr” and the “potency at the Sc” value (catalytic site (Sc)) was “significantly higher potency at the Sc than does SB-207,499”.
For `Cc1cc2c3c(c1)C(c1ccccc1)=N[C@@H](NC(=O)c1ccncc1)C(=O)N3CC2` [CI-1018], the adverse events [4] is listed as “no adverse events were reported”, the oral bioavailability [5] is listed as 57% and the “ED50, oral potency” value [6] is listed as 5 mg/kg. For the same compound, the IC50 (PDE4 in U937 cells) was 1100 nM and the “inhibition of antigen-induced eosinophilia” value [7] was “active”.
In the case of `CCOc1cc2cc(CO)c(CO)c(-c3ccn(CCOC)c(=O)c3)c2cc1OCC` [Example T-440], the “inhibition of early and late phase bronchoconstriction, BAL eosinophilia, ozone-induced AHR and airway epithelial injury” value [8] is given as “activity”.
For `CCOc1cc2cc(CO)c(CO)c(-c3ccnc(-n4nc(-c5cccnc5)c5ccccc5c4=O)c3)c2cc1OCC` [Example T-2585], the IC50 (guinea-pig lung PDE4) is given as 0.13 nM.
For `CCNc1ncn(Cc2ccc(OC)c(OC3CCCC3)c2)c2nc(C(C)C)nc1-2` [Example V-11294A], the “inhibition of antigen-induced bronchoconstriction” value [9] is given as “active” and the “TNF levels and lymphocyte proliferation” value [10] is given as “effective in reducing TNF levels and lymphocyte proliferation”.
In the case of `Cc1c[n+]([O-])ccc1CC(c1ccc(C(O)(C(F)(F)F)C(F)(F)F)cc1)c1ccc(OC(F)F)c(OC(F)F)c1` [L-826,141], the “activity in a rat model of bronchitis” value (bronchitis) is listed as “activity”.
For `O=C(Nc1c(Cl)cncc1Cl)c1ccc(OC(F)F)c(OCC2CC2)c1` [Roflumilast], the IC50 [11] is listed as 3.5 nM.
In the case of `CCCCn1c(=O)c2c(ncn2CC(C)=O)n(CCCC)c1=O` [denbufylline], the “inhibition of the proliferation of HPBM” value [12] is listed as “concentration-related inhibition”, the “lipopolysaccharide-induced bowel erythrocyte extravasation” value [13] is listed as “reduces lipopolysaccharide-induced bowel erythrocyte extravasation” and the “lipopolysaccharide induced erythrocyte extravasation in rats and intestinal hypoperfusion in dogs” value [13] is listed as “attenuated”. The “potency relative to pentoxifylline in inhibiting mesenteric blood flow fall” value [14] was 100 fold, the “bone mineral density of femurs” value (bone loss) was “inhibit the decrease in the bone mineral density of femurs” and the “mineralized nodules and osteoclast-like cells” value (bone marrow culture) was “increase in the number of mineralized nodules and a decrease in the number of osteoclast-like cells”.
In the case of `COc1ccc(C2CNC(=O)C2)cc1OC1CCCC1` (centres unmarked) [rolipram], the “appearance of arthritic symptoms” value ([15]; 2 mg/kg twice daily for five days before the onset of arthritis) is given as “significantly delayed the appearance of arthritic symptoms”, the “development of the disease, arthritis severity” value ([15]; 3 mg/kg twice daily when arthritis was apparent) is given as “progression of severity was halted” and the “TNF-α and IFN mRNA expression in regional lymph nodes” value ([15]; rat, in vivo) is given as “strong down-regulation of TNF-α and IFN7 mRNA expression”. The “inhibition of the proliferation of HPBM” value [12] was “concentration-related inhibition”, the IC50 (PBMC; PHA stimulated atopic dermatitis PBMC proliferation) was 280 nM and the IC50 (PBMC; PHA stimulated normal PBMC proliferation) was 2600 nM. For the same compound, the “topical doses inhibiting croton oil-induced ear inflammation (as low as)” value [16] was 0.03 mg per ear, the “clinical signs and MRI abnormalities” value [17] was “suppress the appearance of clinical signs and abolish abnormalities in MRI imaging” and the “clinical signs and pathological changes” value [18] was “ameliorates clinical signs and pathological changes”. For the same compound, the “effects in dextran sulfate induced colitis model” value (colitis) was “beneficial effects comparable to prednisolone”, the “lipopolysaccharide-induced bowel erythrocyte extravasation” value [13] was “reduces lipopolysaccharide-induced bowel erythrocyte extravasation” and the “lipopolysaccharide induced erythrocyte extravasation in rats and intestinal hypoperfusion in dogs” value [13] was “attenuated”. For the same compound, the “plasma TNF-α and INF-γ concentrations” value ([19]; 0.1 to 10 mg/kg i.p. 30 minutes before challenge) was “significantly reduce plasma TNF-α and INF-γ concentrations”, the IL-10 levels ([19]; 0.1 to 10 mg/kg i.p.) was “significantly elevates IL-10 levels” and the “plasma activities of ALT, AST, and SDH” value ([19]; 0.1 to 10 mg/kg i.p.) was “dose-dependently inhibited”. The “concanavalin A-induced IL4 release” value ([19]; mouse, in vivo) was “suppress concanavalin A-induced IL4 release” and the “relaxant activities of isoproterenol and forskolin” value [20] was “potentiates the relaxant activities of isoproterenol and forskolin”.
